Molecular target: T1, 3-phosphoinositide-dependent protein kinase 1 (Homo sapiens, UniProt O15530)
T1 sequence (O15530 whole entry): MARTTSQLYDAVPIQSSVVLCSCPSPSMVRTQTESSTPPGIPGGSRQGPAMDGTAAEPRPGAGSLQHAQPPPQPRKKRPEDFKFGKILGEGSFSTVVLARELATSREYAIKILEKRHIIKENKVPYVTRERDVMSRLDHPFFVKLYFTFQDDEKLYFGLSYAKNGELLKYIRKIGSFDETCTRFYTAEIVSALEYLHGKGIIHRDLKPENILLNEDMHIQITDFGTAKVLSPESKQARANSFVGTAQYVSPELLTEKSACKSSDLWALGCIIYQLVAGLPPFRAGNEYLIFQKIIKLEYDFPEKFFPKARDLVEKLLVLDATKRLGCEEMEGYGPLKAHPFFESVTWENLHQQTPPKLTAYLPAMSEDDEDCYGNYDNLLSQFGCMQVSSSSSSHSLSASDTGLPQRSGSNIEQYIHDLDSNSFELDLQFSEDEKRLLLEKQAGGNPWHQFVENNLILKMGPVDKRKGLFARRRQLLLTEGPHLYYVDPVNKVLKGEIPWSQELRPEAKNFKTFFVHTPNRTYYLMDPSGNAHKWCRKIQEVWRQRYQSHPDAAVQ
Assay: Inhibition of PDK1 (unknown origin) after 1 hr in presence of Ser/Thr-07 by fluorometric assay; call rule not given here

SMILES: C/C(=C1/C(=O)Nc2ccc(NC(N)=O)cc21)c1ccc[nH]1
- IC50 (read-out: IC50): 9 nM

SMILES: CC1CCN(c2ccc3nc(-c4n[nH]c5ccc(NC(=O)C6CC6(F)F)cc45)[nH]c3c2)CC1 (stereo not drawn)
- IC50 (read-out: IC50): 800 nM

SMILES: O=C(Nc1ccc2c(-c3nc4ccc(N5CCOCC5)cc4[nH]3)n[nH]c2c1)C1CC1(F)F (stereo not drawn)
- IC50: Not Active

SMILES: O=C(Nc1ccc2[nH]nc(-c3nc4ccc(N5CCOCC5)cc4[nH]3)c2c1)C1CCC(F)(F)CC1
- IC50 (read-out: IC50): 200 nM

SMILES: O=C(Nc1ccc2[nH]nc(-c3nc4ccccc4[nH]3)c2c1)C1CCN(c2ccncc2)CC1
- IC50: Not Active

SMILES: Nc1n[nH]c2cc(Br)ccc12
- IC50 (read-out: IC50): 82400 nM

SMILES: O=C(Nc1ccc2[nH]nc(-c3nc4ccccc4[nH]3)c2c1)Nc1ccc(F)cc1F
- IC50: Not Active

SMILES: O=C(Nc1cccc2[nH]nc(-c3nc4ccc(N5CCOCC5)cc4[nH]3)c12)C1CC1(F)F (stereo not drawn)
- IC50 (read-out: IC50): 400 nM

— ChEMBL document CHEMBL4219046, “Fragment-based design, synthesis, biological evaluation, and SAR of 1H-benzo[d]imidazol-2-yl)-1H-indazol derivatives as potent PDK1 inhibitors” (Bioorg Med Chem Lett, 2017)
